Experimental data as given in PubChem BioAssay AID602166 (The Scripps Research Institute Molecular Screening Center, 2012).
pIC50: −log10 of the molar value. The source made the active and inactive calls. No rule for the calls is given here.

Target: Nuclear receptor coactivator 3 (Homo sapiens) (UniProt Q9Y6Q9)
Assay: SRC3 coactivator transcriptional activity inhibitors, dose response, cell-based, luminescence (AID 602166);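 also: potency for reduction of SRC3 reporter signal so compounds are inhibitors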
Conditions: SRC3 luciferase reporter cell assay

Chain of Nuclear receptor coactivator 3 (Homo sapiens) (Q9Y6Q9 whole entry, looked up): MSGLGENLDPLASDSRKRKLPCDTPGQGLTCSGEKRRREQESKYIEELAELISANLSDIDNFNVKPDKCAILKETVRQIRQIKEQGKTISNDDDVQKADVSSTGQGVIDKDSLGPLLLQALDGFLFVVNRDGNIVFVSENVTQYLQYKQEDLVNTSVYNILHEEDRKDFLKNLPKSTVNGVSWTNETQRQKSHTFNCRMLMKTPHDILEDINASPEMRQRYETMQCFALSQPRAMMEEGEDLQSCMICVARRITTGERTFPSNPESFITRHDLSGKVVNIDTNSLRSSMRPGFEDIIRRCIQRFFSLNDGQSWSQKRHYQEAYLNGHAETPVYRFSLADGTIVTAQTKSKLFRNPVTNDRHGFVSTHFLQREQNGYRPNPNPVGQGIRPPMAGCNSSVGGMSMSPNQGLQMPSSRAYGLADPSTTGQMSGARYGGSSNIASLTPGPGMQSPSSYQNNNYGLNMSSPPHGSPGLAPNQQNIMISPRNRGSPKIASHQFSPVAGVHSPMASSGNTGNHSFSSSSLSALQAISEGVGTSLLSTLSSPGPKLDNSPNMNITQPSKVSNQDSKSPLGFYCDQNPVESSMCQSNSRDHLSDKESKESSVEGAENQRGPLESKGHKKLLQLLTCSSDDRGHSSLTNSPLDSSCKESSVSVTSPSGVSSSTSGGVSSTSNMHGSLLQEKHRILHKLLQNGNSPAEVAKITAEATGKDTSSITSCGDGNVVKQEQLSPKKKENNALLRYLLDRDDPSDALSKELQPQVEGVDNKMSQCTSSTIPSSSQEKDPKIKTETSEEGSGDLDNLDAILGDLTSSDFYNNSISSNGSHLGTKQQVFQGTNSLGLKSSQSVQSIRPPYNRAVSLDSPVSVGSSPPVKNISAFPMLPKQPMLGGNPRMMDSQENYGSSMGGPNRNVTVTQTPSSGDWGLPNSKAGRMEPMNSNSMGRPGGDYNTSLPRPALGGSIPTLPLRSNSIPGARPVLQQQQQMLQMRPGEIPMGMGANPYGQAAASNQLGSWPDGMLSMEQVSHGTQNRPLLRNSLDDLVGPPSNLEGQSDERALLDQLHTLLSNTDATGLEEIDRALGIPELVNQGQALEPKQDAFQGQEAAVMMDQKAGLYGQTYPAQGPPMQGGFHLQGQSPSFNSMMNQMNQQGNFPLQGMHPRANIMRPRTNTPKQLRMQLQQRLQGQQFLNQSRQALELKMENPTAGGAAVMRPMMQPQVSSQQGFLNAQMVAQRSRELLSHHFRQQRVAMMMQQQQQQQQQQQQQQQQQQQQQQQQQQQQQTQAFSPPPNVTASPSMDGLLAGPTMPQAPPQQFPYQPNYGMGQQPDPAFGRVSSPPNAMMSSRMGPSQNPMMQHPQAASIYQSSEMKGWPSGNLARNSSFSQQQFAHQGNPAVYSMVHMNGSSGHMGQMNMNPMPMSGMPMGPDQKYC

Row | SMILES | IC50 | pIC50
1 | COc1cc2[nH]c3c(Cl)ncnc3c2cc1OC | > 35.9 µM (inactive) | –
2 | Cc1cc(C(=O)CN2C(=O)c3ccccc3S2(=O)=O)c(C)n1C(C)C | inactive | –
3 | CCCC(=O)NC(c1ccc(Cl)cc1)c1ccc2cccnc2c1O (centres undefined) | – | 5.33
4 | Cn1cnc([N+](=O)[O-])c1Sc1nc(N)nc2c1ncn2C1OC(CO)C(O)C1O (centres undefined) | – | 5.20
5 | Cc1nc(N)nc(N)c1-c1ccc(Cl)c(Cl)c1 | – | 5.86
6 | COc1ccccc1C(=O)N(CCC1CCCN1C)c1nc2ccccc2s1 (centres undefined) | > 35.9 µM (inactive) | –
7 | COc1ccc(OC)c(N/C=C/C(=O)c2ccccc2)c1 | inactive | –
8 | CN(Cc1cnc2nc(N)nc(N)c2n1)c1ccc(C(=O)NC(CCC(=O)O)C(=O)O)cc1 (centres undefined) | > 35.9 µM (inactive) | –
9 | CCN(C(C)=O)c1cnc(C=NNC(N)=S)c2ccccc12 | – | 5.33
10 | c1cc2[nH]snc2c2nc(C3CC3)nc12 | – | 5.79
11 | Cc1ccc(C2=NN(C(=O)CCl)C(c3cccs3)C2)o1 (centres undefined) | inactive | –
12 | COc1ccc(CCNC(=O)c2nnn(-c3ccc4c(c3)OCCO4)c2N)cc1OC | > 35.9 µM (inactive) | –
13 | COc1ccc(-c2nsc3c(N4CCCCC4)ncnc23)cc1 | > 35.9 µM (inactive) | –
14 | COCCNC(=O)c1cc(-c2ccccn2)nc2ccc(S(=O)(=O)N3CCC(C)CC3)cc12 | > 35.9 µM (inactive) | –
15 | COc1ccccc1N(C(=O)CCl)c1cn(C(C)=O)c2ccccc12 | – | 5.09
16 | Brc1ccc2ncc3ccccc3c2c1 | – | 5.10
17 | C(=N\Nc1ccc2ccccc2n1)/c1ccc2c(c1)OCCO2 | inactive | –
18 | CCn1nc(/C=C/c2ccccc2)nc2c(=O)n(C)c(=O)nc1-2 | > 35.9 µM (inactive) | –
19 | COc1ccc(OC)c(Cc2cnc3nc(N)nc(N)c3c2C)c1 | – | 5.13
20 | Nc1ccc(Oc2ccccc2-c2ccccc2)cc1 | inactive | –
21 | O=C(Nc1nc2ccccc2s1)C1c2ccccc2Oc2ccccc21 | – | 5.10
22 | Cc1ccc(C(=O)O/N=C(\N)c2ccccn2)c(Cl)c1 | > 35.9 µM (inactive) | –

Row | SMILES | IC50 | pIC50
23 | NS(=O)(=O)c1ccc(Sc2nc3ccccc3s2)c([N+](=O)[O-])c1 | inactive | –
24 | Oc1ccc(C=NNc2ccccn2)c(O)c1 | inactive | –
25 | Cc1c(/C(O)=C2/C(=O)C(=O)N(Cc3cccnc3)C2c2ccccn2)cnn1-c1ccccc1 (centres undefined) | > 35.9 µM (inactive) | –
26 | CN(C)c1ccc(/C=C/c2ccc3ccccc3n2)cc1 | – | 5.25
27 | COc1cccc(F)c1C(C[N+](=O)[O-])c1c(N)n(C)c(=O)n(C)c1=O (centres undefined) | inactive | –
28 | O=[N+]([O-])c1ccc(N(CCO)CCO)c2c1no[n+]2[O-] | – | 5.14
29 | CCCC(=O)NC(c1ccc(Cl)cc1Cl)c1ccc2cccnc2c1O (centres undefined) | inactive | –
30 | CN(C)c1ccc(CNC(=O)CCNS(=O)(=O)c2cc(Br)cnc2N)cc1 | – | 5.36
31 | Cc1ccc(/C=C2/SC(=S)N(CCCC(=O)Nc3ccc(O)cc3)C2=O)cc1 | – | 5.19
32 | CCn1c2ccccc2c2cnc(N=CN(C)C)c(C#N)c21 | – | 5.31
33 | O=C(NCc1ccccc1)c1c(Cl)nc(Cl)c(Cl)c1Cl | inactive | –
34 | O=C(Nc1ccccc1Oc1ccccc1)c1cc([N+](=O)[O-])ccc1Cl | – | 5.26
35 | CCCC(=O)NC(c1ccc2c(c1)OCO2)c1cc(Cl)c2cccnc2c1O (centres undefined) | – | 5.11
36 | C=CS(=O)(=O)N(Cc1ccc(Cl)c(Cl)c1)C[C@@H](O)CO | – | 5.16
37 | COc1cccc(/C=N/Nc2cc(-n3nc(C)cc3-c3ccccc3)ncn2)c1O | – | 5.39
38 | Cc1ccc2occ(/C=N/NC(=O)[C@@H](N)Cc3ccccc3)c(=O)c2c1 | – | 5.01
39 | OCCN1CCN(C(=S)c2ccc(-c3ccccc3)cc2)CC1 | – | 5.34
40 | C(=Cc1cnc2ccccc2n1)c1ccc2c(c1)OCO2 | inactive | –
41 | Nc1nc2c(nnn2C2CC(O)C(CO)O2)c(=O)[nH]1 (centres undefined) | – | 5.10
42 | c1ccc2c(c1)Nc1ccncc1S2 | inactive | –
43 | O=C(CCl)NC(Cc1ccccc1)c1ccccc1 (centres undefined) | – | 5.25
44 | CCOc1cc(/C=C2\CCC/C(=C\c3cc(Cl)c(O)c(OCC)c3)C2=O)cc(Cl)c1O | > 35.8 µM (inactive) | –
